Experimental data reported in patent US20250312462A1, “PAK1 DEGRADERS AND METHODS OF USE THEREOF” (INSTITUTE FOR CANCER RESEARCH D/B/A THE RESEARCH INSTITUTE …, priority 2022, published 2025).

Columns and labels:
TRKC = TRKC (Homo sapiens, UniProt Q16288); test: KINOMEscan; conditions: read-out: Percent Control
Procedure: (§1) The kinase engagement assay (KINOMEscan®) was performed by DiscoverX assessing binding abilities toward a set of kinases.

[1] = molecular target: ABL1(F317L)-phosphorylated (Homo sapiens, UniProt P00519, F317L); test: KINOMEscan; conditions: read-out: Percent Control
Procedure: as §1

SRMS = SRMS (Homo sapiens, UniProt Q9H3Y6); test: KINOMEscan; conditions: read-out: Percent Control
Procedure: as §1

ABL1-nonphosphorylated = ABL1-nonphosphorylated (Homo sapiens, UniProt P00519); test: KINOMEscan; conditions: read-out: Percent Control
Procedure: as §1

KIT(V559D) = KIT(V559D) (Homo sapiens, UniProt P10721, V559D); test: KINOMEscan; conditions: read-out: Percent Control
Procedure: as §1

CHEK2 = CHEK2 (Homo sapiens, UniProt O96017); test: KINOMEscan; conditions: read-out: Percent Control
Procedure: as §1

YANK1 = YANK1 (Homo sapiens, UniProt Q8WU08); test: KINOMEscan; conditions: read-out: Percent Control
Procedure: as §1

PIP5K2B = PIP5K2B (Homo sapiens, UniProt P78356); test: KINOMEscan; conditions: read-out: Percent Control
Procedure: as §1

ROCK1 = ROCK1 (Homo sapiens, UniProt Q13464); test: KINOMEscan; conditions: read-out: Percent Control
Procedure: as §1

GRK7 = GRK7 (Homo sapiens, UniProt Q8WTQ7); test: KINOMEscan; conditions: read-out: Percent Control
Procedure: as §1

ACVR1B = ACVR1B (Homo sapiens, UniProt P36896); test: KINOMEscan; conditions: read-out: Percent Control
Procedure: as §1

TRKA = TRKA (Homo sapiens, UniProt P04629); test: KINOMEscan; conditions: read-out: Percent Control
Procedure: as §1

p38-alpha = p38-alpha (Homo sapiens, UniProt Q16539); test: KINOMEscan; conditions: read-out: Percent Control
Procedure: as §1

PDPK1 = PDPK1 (Homo sapiens, UniProt O15530); test: KINOMEscan; conditions: read-out: Percent Control
Procedure: as §1

MST1 = MST1 (Homo sapiens, UniProt Q13043); test: KINOMEscan; conditions: read-out: Percent Control
Procedure: as §1

[2] = molecular target: RSK2(Kin.Dom.2-C-terminal) (Homo sapiens, UniProt P51812); test: KINOMEscan; conditions: read-out: Percent Control
Procedure: as §1

MARK3 = MARK3 (Homo sapiens, UniProt P27448); test: KINOMEscan; conditions: read-out: Percent Control
Procedure: as §1

TAK1 = TAK1 (Homo sapiens, UniProt O43318); test: KINOMEscan; conditions: read-out: Percent Control
Procedure: as §1

EGFR(T790M) = EGFR(T790M) (Homo sapiens, UniProt P00533, T790M); test: KINOMEscan; conditions: read-out: Percent Control
Procedure: as §1

AURKC = AURKC (Homo sapiens, UniProt Q9UQB9); test: KINOMEscan; conditions: read-out: Percent Control
Procedure: as §1

CSF1R = CSF1R (Homo sapiens, UniProt P07333); test: KINOMEscan; conditions: read-out: Percent Control
Procedure: as §1

WNK2 = WNK2 (Homo sapiens, UniProt Q9Y3S1); test: KINOMEscan; conditions: read-out: Percent Control
Procedure: as §1

CSNK1A1L = CSNK1A1L (Homo sapiens, UniProt Q8N752); test: KINOMEscan; conditions: read-out: Percent Control
Procedure: as §1

KIT(L576P) = KIT(L576P) (Homo sapiens, UniProt P10721, L576P); test: KINOMEscan; conditions: read-out: Percent Control
Procedure: as §1

MEK6 = MEK6 (Homo sapiens, UniProt P52564); test: KINOMEscan; conditions: read-out: Percent Control
Procedure: as §1

CHEK1 = CHEK1 (Homo sapiens, UniProt O14757); test: KINOMEscan; conditions: read-out: Percent Control
Procedure: as §1

CTK = CTK (Homo sapiens, UniProt P42679); test: KINOMEscan; conditions: read-out: Percent Control
Procedure: as §1

PKMYT1 = PKMYT1 (Homo sapiens, UniProt Q99640); test: KINOMEscan; conditions: read-out: Percent Control
Procedure: as §1

MAP4K3 = MAP4K3 (Homo sapiens, UniProt Q8IVH8); test: KINOMEscan; conditions: read-out: Percent Control
Procedure: as §1

AURKB = AURKB (Homo sapiens, UniProt Q96GD4); test: KINOMEscan; conditions: read-out: Percent Control
Procedure: as §1

PAK1 = PAK1 (Homo sapiens, UniProt Q13153); test: Z'-LYTE FRET kinase inhibition assay; type: biochemical; design: human recombinant PAK1 (kinase domain); purchased Invitrogen PV2830
Procedure: The activity/inhibition of human recombinant PAK1 (kinase domain) or PAK2 (full length) was determined by measuring the phosphorylation of a FRET peptide substrate (Ser/Thr19) labeled with Coumarin and Fluorescein using Z′-LYTE™ assay (Invitrogen). The 10 μL assay mixtures contained 50 mM HEPES (pH 7.5), 0.01% Brij-35, 10 mM MgCl2, 1 mM EGTA, 2 μM FRET peptide substrate, and PAK enzyme (20 pM PAK1; 50 pM PAK2). Incubations were carried out at 22° C. in black polypropylene 384-well plates (Corning Costar). […] Following the 60-minute incubation, the assay mixtures were quenched by the addition of 5 μL of Z′-LYTE™ development reagent, and 1 hour later the emissions of Coumarin (445 nm) and Fluorescein (520 nm) were determined after excitation at 400 nm using an Envision plate reader (Perkin Elmer).

VPS34 = VPS34 (Homo sapiens, UniProt Q8NEB9); test: KINOMEscan; conditions: read-out: Percent Control
Procedure: as §1

PAK1, sequence (Q13153 270-521 limits assumed): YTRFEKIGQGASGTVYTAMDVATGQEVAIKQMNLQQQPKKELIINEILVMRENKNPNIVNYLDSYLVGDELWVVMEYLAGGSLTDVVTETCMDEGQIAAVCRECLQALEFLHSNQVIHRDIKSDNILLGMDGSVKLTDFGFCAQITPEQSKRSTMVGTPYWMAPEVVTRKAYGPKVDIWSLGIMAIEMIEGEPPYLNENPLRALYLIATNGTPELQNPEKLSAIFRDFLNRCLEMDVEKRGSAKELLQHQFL
CHEK2, sequence (O96017 whole entry): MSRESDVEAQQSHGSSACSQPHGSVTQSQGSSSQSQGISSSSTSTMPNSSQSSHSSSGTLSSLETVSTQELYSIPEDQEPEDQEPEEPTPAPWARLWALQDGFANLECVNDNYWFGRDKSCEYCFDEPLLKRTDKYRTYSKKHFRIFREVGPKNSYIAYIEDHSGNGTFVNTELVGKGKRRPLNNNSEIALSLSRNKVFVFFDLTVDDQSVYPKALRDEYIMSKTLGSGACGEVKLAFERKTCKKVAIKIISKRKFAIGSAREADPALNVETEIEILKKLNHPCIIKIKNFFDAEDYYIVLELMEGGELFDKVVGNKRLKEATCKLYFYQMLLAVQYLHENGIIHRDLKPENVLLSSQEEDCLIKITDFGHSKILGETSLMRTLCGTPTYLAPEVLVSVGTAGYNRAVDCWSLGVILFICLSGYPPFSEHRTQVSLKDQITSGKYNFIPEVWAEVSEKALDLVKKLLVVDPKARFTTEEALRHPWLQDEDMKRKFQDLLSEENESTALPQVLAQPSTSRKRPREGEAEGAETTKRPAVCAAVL
MST1, sequence (Q13043 whole entry): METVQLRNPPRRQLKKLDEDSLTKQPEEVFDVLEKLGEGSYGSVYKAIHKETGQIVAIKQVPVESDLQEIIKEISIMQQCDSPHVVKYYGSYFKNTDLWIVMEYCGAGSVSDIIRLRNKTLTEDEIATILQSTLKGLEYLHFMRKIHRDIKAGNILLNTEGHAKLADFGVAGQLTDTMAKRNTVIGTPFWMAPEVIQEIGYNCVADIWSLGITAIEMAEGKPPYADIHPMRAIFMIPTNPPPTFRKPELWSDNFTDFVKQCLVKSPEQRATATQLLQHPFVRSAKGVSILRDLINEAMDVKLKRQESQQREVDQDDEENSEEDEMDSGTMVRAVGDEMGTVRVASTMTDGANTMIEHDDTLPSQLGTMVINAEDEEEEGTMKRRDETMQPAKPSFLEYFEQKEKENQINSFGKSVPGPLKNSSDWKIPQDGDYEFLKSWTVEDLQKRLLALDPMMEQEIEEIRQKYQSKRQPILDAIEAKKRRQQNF
MARK3, sequence (P27448 whole entry): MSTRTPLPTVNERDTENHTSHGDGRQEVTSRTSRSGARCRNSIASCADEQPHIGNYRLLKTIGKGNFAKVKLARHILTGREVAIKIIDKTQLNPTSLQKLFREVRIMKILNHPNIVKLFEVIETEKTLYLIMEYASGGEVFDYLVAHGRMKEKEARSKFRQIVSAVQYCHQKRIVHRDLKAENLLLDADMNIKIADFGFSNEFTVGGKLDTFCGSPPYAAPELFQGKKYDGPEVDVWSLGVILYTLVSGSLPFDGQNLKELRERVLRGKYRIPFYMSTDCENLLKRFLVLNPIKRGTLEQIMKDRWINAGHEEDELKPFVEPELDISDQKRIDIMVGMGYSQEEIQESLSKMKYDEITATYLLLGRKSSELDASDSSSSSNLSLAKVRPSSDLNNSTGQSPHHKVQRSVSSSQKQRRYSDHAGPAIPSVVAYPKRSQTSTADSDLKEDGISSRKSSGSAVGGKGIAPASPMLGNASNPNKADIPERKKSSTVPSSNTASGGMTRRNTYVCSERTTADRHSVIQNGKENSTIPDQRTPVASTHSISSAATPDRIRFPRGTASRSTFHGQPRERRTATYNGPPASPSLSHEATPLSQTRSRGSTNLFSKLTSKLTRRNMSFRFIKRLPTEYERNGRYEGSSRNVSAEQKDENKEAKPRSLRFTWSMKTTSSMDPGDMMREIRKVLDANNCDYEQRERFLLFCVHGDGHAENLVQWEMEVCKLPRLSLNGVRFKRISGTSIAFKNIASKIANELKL
KIT(V559D), sequence (P10721 26-976 V559D): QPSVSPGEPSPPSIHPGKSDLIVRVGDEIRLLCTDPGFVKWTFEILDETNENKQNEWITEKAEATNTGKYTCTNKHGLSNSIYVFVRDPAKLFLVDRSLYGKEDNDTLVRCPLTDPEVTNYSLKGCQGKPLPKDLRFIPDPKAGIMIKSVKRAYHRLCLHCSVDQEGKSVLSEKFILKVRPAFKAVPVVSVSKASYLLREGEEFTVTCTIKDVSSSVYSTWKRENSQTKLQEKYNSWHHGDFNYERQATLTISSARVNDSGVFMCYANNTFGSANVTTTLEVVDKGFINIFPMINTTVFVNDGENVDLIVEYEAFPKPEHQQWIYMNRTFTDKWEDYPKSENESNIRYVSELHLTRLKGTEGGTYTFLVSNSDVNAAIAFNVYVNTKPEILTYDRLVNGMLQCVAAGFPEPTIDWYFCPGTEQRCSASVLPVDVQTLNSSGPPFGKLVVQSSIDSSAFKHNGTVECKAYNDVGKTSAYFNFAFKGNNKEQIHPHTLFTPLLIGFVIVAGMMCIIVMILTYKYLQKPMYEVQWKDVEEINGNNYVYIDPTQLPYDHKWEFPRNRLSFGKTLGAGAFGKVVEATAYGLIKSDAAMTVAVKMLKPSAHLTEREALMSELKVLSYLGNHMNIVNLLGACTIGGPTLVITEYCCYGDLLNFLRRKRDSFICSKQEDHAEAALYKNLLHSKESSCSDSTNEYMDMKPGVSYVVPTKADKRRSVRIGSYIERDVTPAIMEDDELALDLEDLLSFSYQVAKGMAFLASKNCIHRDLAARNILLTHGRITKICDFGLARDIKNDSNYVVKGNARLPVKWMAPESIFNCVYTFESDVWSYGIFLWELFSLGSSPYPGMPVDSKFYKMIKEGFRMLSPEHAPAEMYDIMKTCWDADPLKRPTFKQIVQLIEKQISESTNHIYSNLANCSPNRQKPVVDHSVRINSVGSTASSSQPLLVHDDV
YANK1, sequence (Q8WU08 whole entry): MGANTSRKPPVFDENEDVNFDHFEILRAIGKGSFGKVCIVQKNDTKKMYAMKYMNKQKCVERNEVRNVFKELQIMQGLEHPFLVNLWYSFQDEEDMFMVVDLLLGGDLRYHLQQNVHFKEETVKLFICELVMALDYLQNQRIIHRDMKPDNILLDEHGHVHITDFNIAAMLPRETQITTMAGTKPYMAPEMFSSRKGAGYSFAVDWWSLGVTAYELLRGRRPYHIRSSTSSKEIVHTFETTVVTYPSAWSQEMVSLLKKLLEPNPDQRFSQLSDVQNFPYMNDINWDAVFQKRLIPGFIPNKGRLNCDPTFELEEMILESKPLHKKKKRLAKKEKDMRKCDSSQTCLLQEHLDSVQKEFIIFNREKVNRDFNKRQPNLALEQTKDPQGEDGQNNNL
PKMYT1, sequence (Q99640 whole entry): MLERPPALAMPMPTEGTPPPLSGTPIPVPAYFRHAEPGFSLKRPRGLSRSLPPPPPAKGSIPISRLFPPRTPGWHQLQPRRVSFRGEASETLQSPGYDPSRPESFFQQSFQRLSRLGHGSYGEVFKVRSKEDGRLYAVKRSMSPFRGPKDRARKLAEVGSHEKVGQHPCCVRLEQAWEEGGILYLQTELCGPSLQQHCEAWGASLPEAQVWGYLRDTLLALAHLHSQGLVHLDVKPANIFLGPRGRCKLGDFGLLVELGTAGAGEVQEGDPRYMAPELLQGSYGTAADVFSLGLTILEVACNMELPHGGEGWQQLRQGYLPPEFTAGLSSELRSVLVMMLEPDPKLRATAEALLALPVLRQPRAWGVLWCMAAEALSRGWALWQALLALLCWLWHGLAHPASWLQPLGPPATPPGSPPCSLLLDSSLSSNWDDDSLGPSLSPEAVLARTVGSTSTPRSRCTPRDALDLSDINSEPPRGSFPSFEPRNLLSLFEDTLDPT
RSK2(Kin.Dom.2-C-terminal), sequence (P51812 422-679 limits assumed): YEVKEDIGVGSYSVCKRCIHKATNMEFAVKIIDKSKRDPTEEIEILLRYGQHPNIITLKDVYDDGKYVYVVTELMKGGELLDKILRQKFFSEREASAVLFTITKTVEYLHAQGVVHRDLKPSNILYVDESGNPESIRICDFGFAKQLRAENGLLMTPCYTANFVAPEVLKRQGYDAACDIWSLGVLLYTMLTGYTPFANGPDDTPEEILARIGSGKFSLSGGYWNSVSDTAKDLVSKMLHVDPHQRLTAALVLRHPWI
TRKC, sequence (Q16288 32-839): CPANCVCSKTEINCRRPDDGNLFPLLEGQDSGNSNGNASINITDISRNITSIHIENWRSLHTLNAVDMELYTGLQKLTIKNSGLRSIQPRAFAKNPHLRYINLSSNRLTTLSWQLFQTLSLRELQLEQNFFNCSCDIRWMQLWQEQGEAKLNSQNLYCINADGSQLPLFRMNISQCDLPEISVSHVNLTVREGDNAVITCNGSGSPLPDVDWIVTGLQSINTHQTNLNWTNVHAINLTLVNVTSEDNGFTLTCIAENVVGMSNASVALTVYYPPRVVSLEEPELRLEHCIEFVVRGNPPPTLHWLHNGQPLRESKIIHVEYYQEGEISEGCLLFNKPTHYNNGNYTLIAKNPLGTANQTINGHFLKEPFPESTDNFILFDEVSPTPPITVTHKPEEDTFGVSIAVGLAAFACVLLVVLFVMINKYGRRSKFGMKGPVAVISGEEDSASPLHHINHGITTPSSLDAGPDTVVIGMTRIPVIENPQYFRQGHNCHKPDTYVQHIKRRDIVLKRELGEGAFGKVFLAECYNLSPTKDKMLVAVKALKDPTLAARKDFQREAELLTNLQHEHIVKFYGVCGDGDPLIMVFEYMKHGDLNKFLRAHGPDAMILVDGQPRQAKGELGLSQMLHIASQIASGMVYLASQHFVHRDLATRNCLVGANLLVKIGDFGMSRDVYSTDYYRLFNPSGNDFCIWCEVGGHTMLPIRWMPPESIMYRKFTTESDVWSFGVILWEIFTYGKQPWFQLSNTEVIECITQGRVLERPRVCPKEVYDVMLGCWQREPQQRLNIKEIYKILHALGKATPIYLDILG
KIT(L576P), sequence (P10721 26-976 L576P): as the sequence (P10721 26-976 V559D) above, with D534V, L551P counted along it

`O=C1CCC(N2C(=O)c3cccc(NCCCCCCCCNC(=O)N4CC[C@H](NC5=Nc6cc(F)ccc6N(CC(F)F)c6ccc(Cl)cc65)C4)c3C2=O)C(=O)N1` (stereo partly drawn) [BJG-05-039, (3S)-3-((2-Chloro-5-(2,2-difluoroethyl)-8-fluoro-5H-dibenzo[b,e][1,4]diazepin-11-yl)amino)-N-(8-((2-(2,6-dioxopiperidin-3-yl)-1,3-dioxoisoindolin-4-yl)amino)octyl)pyrrolidine-1-carboxamide] was tested, and the remaining binding at 10 µM (TRKC) was 100%, the remaining binding at 10 µM [1] was 100% and the remaining binding at 10 µM (SRMS) was 97%. For the same molecule, the remaining binding at 10 µM (ABL1-nonphosphorylated) was 83%, the remaining binding at 10 µM (KIT(V559D)) was 81% and the remaining binding at 10 µM (CHEK2) was 62%. For the same molecule, the remaining binding at 10 µM (YANK1) was 100%, the remaining binding at 10 µM (PIP5K2B) was 100% and the remaining binding at 10 µM (ROCK1) was 100%. For the same molecule, the remaining binding at 10 µM (GRK7) was 100%, the remaining binding at 10 µM (ACVR1B) was 85% and the remaining binding at 10 µM (TRKA) was 72%. For the same molecule, the remaining binding at 10 µM (p38-alpha) was 60%, the remaining binding at 10 µM (PDPK1) was 86% and the remaining binding at 10 µM (MST1) was 90%. It also gave a remaining binding at 10 µM [2] of 87%, a remaining binding at 10 µM (MARK3) of 83% and a remaining binding at 10 µM (TAK1) of 100%. For the same molecule, the remaining binding at 10 µM (EGFR(T790M)) was 97%, the remaining binding at 10 µM (AURKC) was 83% and the remaining binding at 10 µM (CSF1R) was 89%. It also gave a remaining binding at 10 µM (WNK2) of 89%, a remaining binding at 10 µM (CSNK1A1L) of 83% and a remaining binding at 10 µM (KIT(L576P)) of 84%. The remaining binding at 10 µM (MEK6) was 86%, the remaining binding at 10 µM (CHEK1) was 57% and the remaining binding at 10 µM (CTK) was 89%. For the same molecule, the remaining binding at 10 µM (PKMYT1) was 54%, the remaining binding at 10 µM (MAP4K3) was 72% and the remaining binding at 10 µM (AURKB) was 93%. For the same molecule, the IC50 (PAK1) was 233 nM, the “Increase of selectivity over PAK2 relative to NVS-PAK-1” value (PAK1; from Table 1) was “more than ten-fold” and the “PAK1 inhibitory activity and selectivity of conjugate” value (PAK1; vs PAK2 and PAK4) was “retained PAK1 inhibitory activity and selectivity”. The remaining binding at 10 µM (VPS34) was 100%.
